Measurements published in patent US10618901B2 (GlaxoSmithKline Intellectual Property Development Limited, priority 2014, dated 2020).

biological target: T1, LRRK2 Ser935 phosphorylation in SH-SY5Y cells over-expressing recombinant full length LRRK2 (Homo sapiens, UniProt Q5S007); test: Recombinant cellular LRRK2 AlphaScreen assay; type: cell-based; settings: LRRK2 Ser935 phosphorylation, 60 minutes, read-out: recombinant cellcular LRRK2 alphaScreen assay (pIC50) (converted)
T1 construct: A BacMam virus expressing full length recombinant LRRK2 was purchased from Invitrogen; host or cells: SH-SY5Y (BacMam transduction)
Excerpt: Recombinant Cellular LRRK2 AlphaScreen Assay
To determine the activity of compounds against LRRK2 kinase activity in cells, the observed LRRK2 kinase-dependent modulation of LRRK2 Ser 935 phosphorylation (Dzamko et al., 2010, Biochem. J. 430: 405-413) was utilized to develop a quantitative 384 well plate-based immunoassay of LRRK2 Ser935 phosphorylation in the human neuroblastoma cell line SH-SY5Y, engineered to over-express recombinant full length LRRK2 protein.
A BacMam virus expressing full length recombinant LRRK2 was purchased from Invitrogen and amplified by inoculation of SF-9 cells at MOI 0.3 for 4-5 days in Sf-900 III SFM medium supplemented with 3% fetal bovine serum. Infected cell cultures were then centrifuged at 2000 g for 20 minutes, viral supernatant titer determined by anti-gp64 plaque assay and stored at 4° C.
Affinity-purified anti-phospho LRRK2 Ser935 sheep polyclonal antibody (Dzamko et al., 2010, Biochem. J. 430: 405-413) was biotinylated by standard methods (PerkinElmer). Anti-LRRK2 rabbit polyclonal antibody was purchased from Novus Biologicals. AlphaScreen Protein A IgG Kit (including acceptor and donor beads) was purchased from Perkin Elmer.
SH-SY5Y cells were grown in DMEM/F12 medium with 10% dialysed fetal bovine serum and harvested by treatment with 0.5% trypsin-EDTA for 5 minutes at 37° C. followed by centrifugation at 1000 rpm for 4 minutes. The cell pellet was resuspended in Opti-MEM reduced serum media (Invitrogen) at 200,000 cells/ml and mixed with the BacMam LRRK2 virus at M01=50. 50 μl cell solutions were then dispensed to each well of a 384-well plate and incubated at 37° C., 5% CO2 for 24 hours.
Serial dilutions of test compounds were prepared in Opti-MEM reduced serum media (Invitrogen) and 5.6 ul transferred from compound plate to cell assay plate to achieve a top final assay concentration of 10 uM. DMSO was used in certain wells as controls. Cells were incubated at 37° C., 5% CO2 for 60 minutes. The medium was then removed and cells lysed by addition of 20 ul cell lysis buffer (Cell Signaling Technology) and incubation at 4° C. for 20 minutes. 10 ul of antibody/acceptor bead mix [(1/1000 biotinylated-pS935 LRRK2 antibody, 1/1000 total-LRRK2 antibody, 1/100 Acceptor beads in AlphaScreen detection buffer (25 mM Hepes (pH 7.4), 0.5% Triton X-100, 1 mg/ml Dextran 500 and 0.1% BSA)] was then added to each well and plates incubated for 2 hours at ambient temperature in the dark. 10 μl of donor beads solution (1/33.3 donor beads in AlphaScreen detection buffer) was then added to each well. Following incubation for a further 2 hours at ambient temperature in the dark, plates were read on an EnVision™ plate reader at emission 520-620 nm with excitation 680 nm. Dose response curve data was based on sigmoidal dose-response model.

T1 sequence (Q5S007 whole entry): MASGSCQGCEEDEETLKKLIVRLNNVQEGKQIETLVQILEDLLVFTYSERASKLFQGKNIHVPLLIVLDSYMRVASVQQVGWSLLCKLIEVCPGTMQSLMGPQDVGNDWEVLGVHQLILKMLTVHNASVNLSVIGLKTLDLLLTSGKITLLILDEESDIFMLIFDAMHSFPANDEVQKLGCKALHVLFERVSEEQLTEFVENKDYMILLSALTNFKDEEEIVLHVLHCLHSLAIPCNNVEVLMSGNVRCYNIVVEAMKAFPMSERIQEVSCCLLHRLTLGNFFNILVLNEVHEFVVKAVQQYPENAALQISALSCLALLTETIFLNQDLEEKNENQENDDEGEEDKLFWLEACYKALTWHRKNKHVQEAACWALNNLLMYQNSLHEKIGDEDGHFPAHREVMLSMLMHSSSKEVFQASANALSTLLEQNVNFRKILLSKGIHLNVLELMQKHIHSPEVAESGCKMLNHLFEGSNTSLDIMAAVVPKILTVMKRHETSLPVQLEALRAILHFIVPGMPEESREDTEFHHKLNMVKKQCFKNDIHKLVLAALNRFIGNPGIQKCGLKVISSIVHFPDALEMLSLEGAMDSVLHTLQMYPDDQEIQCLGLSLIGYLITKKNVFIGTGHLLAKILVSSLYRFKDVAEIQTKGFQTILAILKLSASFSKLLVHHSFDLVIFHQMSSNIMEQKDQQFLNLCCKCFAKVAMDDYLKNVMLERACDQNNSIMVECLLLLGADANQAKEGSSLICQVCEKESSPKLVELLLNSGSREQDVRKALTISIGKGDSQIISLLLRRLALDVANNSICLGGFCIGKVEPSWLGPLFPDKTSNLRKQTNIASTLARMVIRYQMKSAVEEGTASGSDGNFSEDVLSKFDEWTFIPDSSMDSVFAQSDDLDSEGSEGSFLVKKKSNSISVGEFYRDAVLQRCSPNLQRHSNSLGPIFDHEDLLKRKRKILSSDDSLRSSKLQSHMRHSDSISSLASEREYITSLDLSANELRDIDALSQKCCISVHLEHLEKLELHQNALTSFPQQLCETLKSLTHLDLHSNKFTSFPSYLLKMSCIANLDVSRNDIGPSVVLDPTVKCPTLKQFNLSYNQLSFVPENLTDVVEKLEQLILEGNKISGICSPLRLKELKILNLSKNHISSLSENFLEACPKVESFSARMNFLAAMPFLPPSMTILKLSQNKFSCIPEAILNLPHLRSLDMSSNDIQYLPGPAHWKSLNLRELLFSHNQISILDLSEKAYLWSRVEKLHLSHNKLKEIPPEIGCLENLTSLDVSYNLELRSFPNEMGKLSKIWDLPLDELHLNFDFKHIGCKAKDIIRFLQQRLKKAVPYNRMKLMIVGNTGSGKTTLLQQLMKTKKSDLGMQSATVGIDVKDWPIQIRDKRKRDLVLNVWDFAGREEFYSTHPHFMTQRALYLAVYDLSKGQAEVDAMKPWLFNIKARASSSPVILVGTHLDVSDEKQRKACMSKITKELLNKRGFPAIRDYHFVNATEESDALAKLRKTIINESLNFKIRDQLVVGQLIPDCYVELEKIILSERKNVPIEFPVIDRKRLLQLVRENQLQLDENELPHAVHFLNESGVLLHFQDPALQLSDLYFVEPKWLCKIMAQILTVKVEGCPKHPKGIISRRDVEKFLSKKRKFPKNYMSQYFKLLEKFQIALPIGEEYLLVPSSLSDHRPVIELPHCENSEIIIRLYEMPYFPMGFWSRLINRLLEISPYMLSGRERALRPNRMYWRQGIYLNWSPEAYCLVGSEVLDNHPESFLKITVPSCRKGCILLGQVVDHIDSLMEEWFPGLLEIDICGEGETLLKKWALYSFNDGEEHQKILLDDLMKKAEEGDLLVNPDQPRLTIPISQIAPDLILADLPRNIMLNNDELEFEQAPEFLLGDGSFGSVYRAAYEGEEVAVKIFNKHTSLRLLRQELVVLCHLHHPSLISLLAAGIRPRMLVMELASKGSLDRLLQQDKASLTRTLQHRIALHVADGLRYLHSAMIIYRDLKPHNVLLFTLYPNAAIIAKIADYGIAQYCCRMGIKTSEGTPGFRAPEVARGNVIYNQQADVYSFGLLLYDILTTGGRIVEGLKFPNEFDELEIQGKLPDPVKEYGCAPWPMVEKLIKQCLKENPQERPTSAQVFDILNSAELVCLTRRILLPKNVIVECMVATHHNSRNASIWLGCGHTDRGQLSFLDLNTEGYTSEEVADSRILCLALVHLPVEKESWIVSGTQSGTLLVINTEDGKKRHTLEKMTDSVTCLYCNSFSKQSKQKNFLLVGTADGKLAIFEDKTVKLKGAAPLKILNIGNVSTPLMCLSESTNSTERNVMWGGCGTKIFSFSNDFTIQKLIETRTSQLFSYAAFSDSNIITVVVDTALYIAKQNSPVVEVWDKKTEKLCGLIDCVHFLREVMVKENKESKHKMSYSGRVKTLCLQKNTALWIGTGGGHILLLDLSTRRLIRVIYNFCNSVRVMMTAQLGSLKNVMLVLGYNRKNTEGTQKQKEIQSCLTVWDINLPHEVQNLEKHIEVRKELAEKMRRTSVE

Row | IC50 | Compound
1 | 31.6 nM | CCOc1nc(Nc2cnn([C@H]3C[C@H](F)CN(C4COC4)C3)c2Cl)nc2[nH]ccc12 [Example E150, N-(5-chloro-1-((3S,5S)-5-fluoro-1-(oxetan-3-yl)piperidin-3-yl)-1H-pyrazol-4-yl)-4-ethoxy-7H-pyrrolo[2,3-d]pyrimidin-2-amine]
2 | 2.51 nM | CCOc1nc(Nc2cnn(C3CNCCC3(F)F)c2C)nc2[nH]ccc12 (single isomer, unassigned) [Example E117, N-(1-(4,4-difluoropiperidin-3-yl)-5-methyl-1H-pyrazol-4-yl)-4-ethoxy-7H-pyrrolo[2,3-d]pyrimidin-2-amine]

same assay, conditions: read-out: pIC50 in the recombinant cellular LRRK2 alphaScreen assay (converted)

Row | Compound | IC50
3 | CCOc1nc(Nc2cnn(CCN3CCO[C@@H](C)C3)c2C)nc2[nH]ccc12 [Example E84, (S)-4-ethoxy-N-(5-methyl-1-(2-(2-methylmorpholino)ethyl)-1H-pyrazol-4-yl)-7H-pyrrolo [2,3-d]pyrimidin-2-amine] | ≤ 100 nM
4 | CCOc1nc(Nc2cnn(C3COC3)c2C)nc2[nH]ccc12 [Example E34, 4-ethoxy-N-(5-methyl-1-(oxetan-3-yl)-1H-pyrazol-4-yl)-7H-pyrrolo[2,3-d]pyrimidin-2-amine] | ≤ 100 nM
5 | CCOc1nc(Nc2cnn(C3CCOC3)c2C)nc2[nH]ccc12 (single isomer, unassigned) [Example E16, 4-ethoxy-N-(5-methyl-1-(tetrahydrofuran-3-yl)-1H-pyrazol-4-yl)-7H-pyrrolo-[2,3-d]-pyrimidin-2-amine] | ≤ 100 nM
6 | CCOc1nc(Nc2cnn(C3CCCC3(C)O)c2C)nc2[nH]ccc12 (single isomer, unassigned) [Example E77, trans-2-(4-((4-ethoxy-7H-pyrrolo-[2,3-d]pyrimidin-2-yl)amino)-5-methyl-1H-pyrazol-1-yl)-1-methylcyclopentanol] | ≤ 100 nM
7 | CCOc1nc(Nc2cnn(C3CCCC3O)c2C)nc2[nH]ccc12 (racemic) [Example E39, (±)-2-(4-((4-ethoxy-7H-pyrrolo[2,3-d]pyrimidin-2-yl)amino)-5-methyl-1H-pyrazol-1-yl)cyclopentanol] | ≤ 100 nM
8 | CCOc1nc(Nc2cnn(C3CN(C)CC3F)c2C)nc2[nH]ccc12 (single isomer, unassigned) [Example E59, 4-ethoxy-N-(1-(4-fluoro-1-methylpyrrolidin-3-yl)-5-methyl-1H-pyrazol-4-yl)-7H-pyrrolo-[2,3-d]pyrimidin-2-amine] | ≤ 100 nM
9 | CCOc1nc(Nc2cnn(C3CCN(C4COC4)CC3)c2C)nc2[nH]ccc12 [Example E53, 4-ethoxy-N-(5-methyl-1-(1-(oxetan-3-yl)-piperidin-4-yl)-1H-pyrazol-4-yl)-7H-pyrrolo-[2,3-d]-pyrimidin-2-amine] | ≤ 100 nM
10 | CCOc1nc(Nc2cnn(CC3COC3)c2C)nc2[nH]ccc12 [Example E29, 4-ethoxy-N-(5-methyl-1-(oxetan-3-yl-methyl)-1H-pyrazol-4-yl)-7H-pyrrolo-[2,3-d]pyrimidin-2-amine] | ≤ 100 nM

Second part, the compound after the results:

Row | IC50 | Compound
11 | ≤ 100 nM | CCOc1nc(Nc2cnn([C@H]3C[C@H](F)CN(C4COC4)C3)c2Cl)nc2[nH]ccc12 [Example E150, N-(5-chloro-1-((3S,5S)-5-fluoro-1-(oxetan-3-yl)piperidin-3-yl)-1H-pyrazol-4-yl)-4-ethoxy-7H-pyrrolo[2,3-d]pyrimidin-2-amine]
12 | ≤ 100 nM | CCOc1nc(Nc2cnn(C3CCN(C4COC4)CC3F)c2CC)nc2[nH]ccc12 (single isomer, unassigned) [Example E130, (trans)-4-ethoxy-N-(5-ethyl-1-(3-fluoro-1-(oxetan-3-yl)piperidin-4-yl)-1H-pyrazol-4-yl)-7H-pyrrolo[2,3-d]pyrimidin-2-amine]
13 | ≤ 100 nM | CCOc1nc(Nc2cnn(C3CCN(C4COC4)CC3(F)F)c2C)nc2[nH]ccc12 (single isomer, unassigned) [Example E131, N-(1-(3,3-difluoro-1-(oxetan-3-yl)piperidin-4-yl)-5-methyl-1H-pyrazol-4-yl)-4-ethoxy-7H-pyrrolo[2,3-d]pyrimidin-2-amine]
14 | ≤ 100 nM | CCOc1nc(Nc2cnn(C3CC(N4CCOCC4)CCC3(F)F)c2Cl)nc2[nH]ccc12 (single isomer, unassigned) [Example E148, trans-N-(5-chloro-1-(2,2-difluoro-5-morpholinocyclohexyl)-1H-pyrazol-4-yl)-4-ethoxy-7H-pyrrolo[2,3-d]pyrimidin-2-amine]
15 | ≤ 100 nM | CCOc1nc(Nc2cnn(C3CCOCC3F)c2C)nc2[nH]ccc12 (single isomer, unassigned) [Example E128, (cis)-4-ethoxy-N-(1-(3-fluorotetrahydro-2H-pyran-4-yl)-5-methyl-1H-pyrazol-4-yl)-7H-pyrrolo[2,3-d]pyrimidin-2-amine]
16 | ≤ 100 nM | CCOc1nc(Nc2cnn([C@@H]3CCN[C@@H](C(F)F)C3)c2C)nc2[nH]ccc12 [Example E94, N-(1-((2R,4R)-2-(difluoromethyl)piperidin-4-yl)-5-methyl-1H-pyrazol-4-yl)-4-ethoxy-7H-pyrrolo[2,3-d]pyrimidin-2-amine]
17 | ≤ 100 nM | CCOc1nc(Nc2cnn([C@H]3CCN(C4COC4)C[C@@H]3F)c2C)nc2[nH]ccc12 [Example E97, 4-ethoxy-N-(1-((3S,4S)-3-fluoro-1-(oxetan-3-yl)piperidin-4-yl)-5-methyl-1H-pyrazol-4-yl)-7H-pyrrolo[2,3-d]pyrimidin-2-amine]
18 | ≤ 100 nM | CCOc1nc(Nc2cnn(C(C)(C)C#N)c2C)nc2[nH]ccc12 [Example E96, 2-(4-((4-ethoxy-7H-pyrrolo[2,3-d]pyrimidin-2-yl)amino)-5-methyl-1H-pyrazol-1-yl)-2-methylpropanenitrile]
19 | ≤ 100 nM | CCOc1nc(Nc2cnn(C3CN(C4COC4)CCC3(F)F)c2Cl)nc2[nH]ccc12 (single isomer, unassigned) [Example E123, N-(5-chloro-1-(4,4-difluoro-1-(oxetan-3-yl)piperidin-3-yl)-1H-pyrazol-4-yl)-4-ethoxy-7H-pyrrolo[2,3-d]pyrimidin-2-amine]
20 | ≤ 100 nM | CCOc1nc(Nc2cnn(C3CNCCC3(F)F)c2C)nc2[nH]ccc12 (single isomer, unassigned) [Example E117, N-(1-(4,4-difluoropiperidin-3-yl)-5-methyl-1H-pyrazol-4-yl)-4-ethoxy-7H-pyrrolo[2,3-d]pyrimidin-2-amine]
